In ChEMBL document CHEMBL5357060, “Cytotoxic Polyhydroxy-Isoprenoids from Neodidymelliopsis negundinis” (J Nat Prod, 2024):
Converted amounts (≈) assume the structure as drawn.

Tests used:
[1] = Cytotoxicity against mouse L929 cells assessed as reduction in cell viability incubated for 5 days by MTT assay; type: toxicity, cell-based
KB 3-1 = assay: Antiproliferative activity against human KB-3-1 cells assessed as reduction in cell growth incubated for 5 days by MTT assay; type: functional, cell-based; conditions: KB 3-1, 120 h
PC-3 = assay: Antiproliferative activity against human PC-3 cells assessed as reduction in cell growth incubated for 5 days by MTT assay; type: functional, cell-based; conditions: PC-3, 120 h
MCF7 = assay: Antiproliferative activity against human MCF7 cells assessed as reduction in cell growth incubated for 5 days by MTT assay; type: functional, cell-based; conditions: MCF7, 120 h
SK-OV-3 = assay: Antiproliferative activity against human SK-OV-3 cells assessed as reduction in cell growth incubated for 5 days by MTT assay; type: functional, cell-based; conditions: SK-OV-3, 120 h
A-431 = assay: Antiproliferative activity against human A-431 cells assessed as reduction in cell growth incubated for 5 days by MTT assay; type: functional, cell-based; conditions: A-431, 120 h
A549 = assay: Antiproliferative activity against human A549 cells assessed as reduction in cell growth incubated for 5 days by MTT assay; type: functional, cell-based; conditions: A549, 120 h
Bacillus subtilis = assay: Antibacterial activity against Bacillus subtilis DSM 10 incubated overnight by serial dilution assay; type: functional
Staphylococcus aureus [2] = assay: Antibacterial activity against Staphylococcus aureus DSM 346 incubated overnight by serial dilution assay; type: functional
Staphylococcus aureus [3] = assay: Antibiofilm activity against Staphylococcus aureus DSM 1104 assessed as increase in biofilm inhibition at 250 ug/ml incubated for 24 hrs by crystal violet staining based plate reader analysis relative to control; type: functional; set-up: scale not given: the % may be the effect or the level left; conditions: dose 250 µg/ml
Candida albicans [4] = assay: Antibiofilm activity against Candida albicans DSM 11225 assessed as increase in biofilm inhibition at 250 ug/ml incubated for 24 hrs by crystal violet staining based plate reader analysis relative to control; type: functional; set-up: scale not given: the % may be the effect or the level left; conditions: dose 250 µg/ml
Candida albicans [5] = assay: Antibiofilm activity against Candida albicans DSM 11225 assessed as increase in biofilm inhibition at 125 microg/ml incubated for 24 hrs by crystal violet staining based plate reader analysis relative to control; type: functional; set-up: scale not given: the % may be the effect or the level left; conditions: dose 125 µg/ml

C/C(=C\CC/C(C)=C/CO[C@@H]1O[C@H](CO)[C@@H](O)[C@H](O)[C@@H]1O)CC/C=C(\C)CCCC(C)(O)CCCC(C)(O)CCCC(C)(O)CCCC(C)(O)CCCC(C)(O)CCC(O)C(C)(C)O (some centres not stated)
IC50 at 5 days [1]: 8.1 µM
IC50 (KB 3-1): 8.3 µM
IC50 (PC-3): 4.8 µM
IC50 (MCF7): 4.8 µM
IC50 (SK-OV-3): 4.8 µM
IC50 (A-431): 4.8 µM
IC50 (A549): 4.8 µM
MIC (Bacillus subtilis): 16.6 µg/mL (≈ 18.1 µM)
MIC (Staphylococcus aureus [2]): 33.3 µg/mL (≈ 36.3 µM)
Activity (Staphylococcus aureus [3]): 85%
Activity (Candida albicans [4]): 71%
Activity (Candida albicans [5]): 66%
